The subject of data set [1] is guinea pig tracheal smooth muscle (MABA). The data set can be described thus: MABA activity: relaxation of CCh pre-constricted guinea pig isolated trachea. The conditions noted are these: Cavia porcellus; CCh 3×10^−6 mol/L. How it is done: (1) The Constriction Effect of Tracheal Smooth Muscle of Guinea Pig Induced by the Example Compounds Antagonizing Carbachol (CCh)
(§1) Preparation of an isolated tracheal smooth muscle specimen of a guinea pig: same as Experiment Example 1.
Administration Method: After the trachea flake were stabilized, carbachol with a final concentration of 3×10^−6 mol/L was added, and administration was started when the pressure value of the trachea flake was increased to a stable platform. The experiments were divided into blank group and each test sample administration group. DMSO solution prepared from K—H solution and 50 μl of each test sample solution were added to each group respectively. The test sample administration group was added with 10^−9, 0.3×10^−8, 10^−8, 0.3×10^−7, 10^−7, 0.3×10^−6 and 10^−6 mol/L of test compound and control substance at cumulative concentration. The blank group was added with corresponding diluted DMSO solution. Medlab was used to record the relaxation degree of smooth muscle of the trachea flake. Finally, isoproterenol with a final concentration of 10^−5 mol/L was added as 100% relaxation.

Data set [2] has as its system M receptor of guinea pig tracheal smooth muscle. The data set can be described thus: MA activity: guinea pig isolated trachea, propranolol blocks β receptor, CCh constriction. The conditions noted are these: Cavia porcellus; propranolol 10^−5 mol/L, CCh 3×10^−6 mol/L. How it is done:
(2) Blocking Effect of Example Compounds on M Receptor of Guinea Pig Tracheal Smooth Muscle
as §1
Administration method: After trachea flake was stabilized, propranolol hydrochloride solution with a final concentration of 10^−5 mol/L was added to block β receptor for 10 min, carbachol with a final concentration of 3×10^−6 mol/L was added (observing M receptor antagonism of compound after propranolol blocks β receptor), and administration was started when the pressure value of the trachea flake was increased to a stable platform. The experiments were divided into a blank group, a propranolol+blank group, each test sample administration group and a propranolol+each test sample administration group. DMSO solution prepared by K—H solution and 50 μl of test sample solution were added to each group of the blank group and each test sample administration group respectively. The propranolol+blank group and propranolol+each test sample administration group were added with 50 μl propranolol solution for 10 min respectively, and then added with DMSO solution prepared from K—H solution and 50 μl of test sample solution. The test sample administration group was added with the compounds to be tested with final concentrations of 10^−9, 0.3×10^−8, 10^−8, 0.3×10^−7, 10^−7, 0.3×10^−6 and 10^−6 mol/L at cumulative concentration, and the blank group was added with corresponding diluted DMSO solution. The propranolol+each test sample administration group was added with propranolol for 10 min, and then added with the compounds to be tested with final concentrations of 10^−9, 0.3×10^−8, 10^−8, 0.3×10^−7, 10^−7, 0.3×10^−6 and 10^−6 mol/L at cumulative concentration. After the propranolol+blank group was added with propranolol for 10 min, corresponding diluted DMSO solution was added. Medlab was used to record the relaxation degree of tracheal smooth muscle, finally sodium nitroprusside with a final concentration of […] was added as 100% relaxation.

In data set [3] the test system is β2 receptor in guinea pig tracheal smooth muscle. Kind of data set: BA activity: guinea pig isolated trachea pre-treated with histamine. The conditions noted are these: Cavia porcellus, read-out: BA (EC50, nM). On the procedure:
(3) The Antagonism of the Example Compounds on β2 Receptor in Guinea Pig Tracheal Smooth Muscle
as §1
Administration Method: After the trachea flake was stabilized, histamine solution with a final concentration of 3×10^−5 mol/L was added for 10 min, carbachol with a final concentration of 3×10^−6 mol/L was added (observing β receptor antagonism), and administration was started when the pressure value of the trachea flake was increased to a stable platform. The experiments were divided into a blank group, a histamine+blank group, each test sample administration group and a histamine+each test sample administration group. DMSO solution prepared by K—H solution and 50 μl of test sample solution were added to each group of the blank group and each test sample administration group respectively. The histamine+blank group and histamine+each test sample administration group were added with 50 μl histamine solution for 10 min respectively, then added with DMSO solution prepared by K—H solution and 50 μl test sample solution. The test sample administration group was added with the compounds to be tested with final concentrations of 10^−9, 0.3×10^−8, 10^−8, 0.3×10^−7, 10^−7, 0.3×10^−6 and 10^−6 mol/L at cumulative concentration, and the blank group was added with corresponding diluted DMSO solution. The histamine+each test sample administration group was added with histamine for 10 min, and then added with the test compounds with final concentrations of 10^−9, 0.3×10^−8, 10^−8, 0.3×10^−7, 10^−7, 0.3×10^−6 and 10^−6 mol/L at cumulative concentration. After the histamine+blank group was added with histamine for 10 m, corresponding diluted DMSO solution was added. Medlab was used to record the relaxation degree of smooth muscle of the trachea flake. Finally theophylline with a final concentration of 2×10^−4 mol/L was added as 100% relaxation.

Data set [4] deals with heart rate of Beagle dogs. The data set can be described thus: Heart rate changes after iv administration in Beagle dogs. The data set is classed as in vivo, Beagle dog. How it is done: Beagle dogs were randomly divided into two groups, half male and half female, and were intravenously injected (iv) with 7.5% ethanol solution of compounds of the invention and control compound. Each compound was set up in two dosage groups of 0.01 mg/kg and 0.10 mg/kg.

Data set [5] can be described thus: Liver microsome metabolic stability in vitro (human). The conditions noted are these: Human liver microsomes. How it is done:
(§2) The area ratio of the 0 min sample was taken as 100%, and the remaining percentage of the compound after incubation at different times was obtained at each time point by comparison with the sample. With the natural logarithm of this percentage on the ordinate and time on the abscissa, a scatter plot was drawn to simulate a straight line with a negative slope of k. The parameters were calculated according to the formula.
(§3) Liver weight indicates the liver weight (g) per kilogram of body weight, and P450 indicates the amount (mg) of P450 enzyme per gram of liver.
A general note: Microsomes from liver hold many membrane-bound enzymes, among them those of drug oxidation.

Data set [6] can be described thus: Liver microsome metabolic stability in vitro (SD rat). The conditions noted are these: SD rat liver microsomes. How it is done: as §2, §3
Data set [7] is described as follows: Liver microsome metabolic stability in vitro (Beagle dog). The conditions noted are these: Beagle dog liver microsomes. On the procedure:
as §2, §3

Data set [8] in a line: Lung homogenate stability in vitro (human). The data set is classed as in vitro ADME. The conditions noted are these: 8 h, 37° C.
Data set [9] is described as follows: Lung homogenate stability in vitro (dog). The format is in vitro ADME, Beagle dog. The conditions noted are these: 8 h, 37° C. On the procedure: The compounds of the invention were respectively incubated with the lung homogenate of Beagle dogs for 8 hours in a water bath at 37° C., and sample was analysed by LC-MS/MS when the reaction was terminated.

As for `OCc1cc([C@@H](O)CNCCCCCCCCC[N+]23CCC(CC2)[C@@H](OC[C@@](O)(c2ccccc2)C2CCCC2)C3)ccc1O.[Br-]` [Compound 7], the EC50 was 72.3 ± 14.6 nM in data set [1], 290 ± 12.3 nM in data set [2] and 162 ± 9.8 nM in data set [3]. Moreover, the “0.5-4 h area increase under heart rate curve (%)” value (from here on “0.5-4 h area increase … (%)”) in [4] (0.01 mg/kg iv) is −0.5%; in [4] (0.10 mg/kg iv) it was 0%. In addition, the “liver extraction rate (ERh)” value in data set [5] was 0.94; in data set [6], 0.97; in [7], 0.98. Also, the “Residual rate after incubation of human lung homogenate (%)” value in [8] amounted to 93%. In addition, the “Residual rate after incubation of dog lung homogenate (%)” value in data set [9] is listed as 95%.
Consider `O=c1ccc2c([C@@H](O)CNCCCCCCCCC[N+]34CCC(CC3)[C@@H](OC[C@@](O)(c3ccccc3)C3CCCC3)C4)ccc(O)c2[nH]1.[Br-]` [Compound 12], for which the EC50 in data set [1] was determined as 5.8 ± 1.4 nM; in data set [2] it was 20.1 ± 2.8 nM; in data set [3], 13.8 ± 2.3 nM. Also, the “0.5-4 h area increase … (%)” value in [4] (0.01 mg/kg iv) is 1.2%; in [4] (0.10 mg/kg iv) it was 3.6%. Moreover, the “liver extraction rate (ERh)” value was found to be 0.96 in data set [5], 0.98 in [6] and 0.93 in [7]. The “Residual rate after incubation of human lung homogenate (%)” value in data set [8] came out at 98%. Moreover, the “Residual rate after incubation of dog lung homogenate (%)” value in data set [9] was 91%.
`CC(Cc1ccc(OCC[N+]23CCC(CC2)[C@@H](OC[C@@](O)(c2ccccc2)C2CCCC2)C3)cc1)NC[C@H](O)c1ccc(O)c(NC=O)c1` (stereo partly drawn) [Compound 61, (R)-(−)-3-[(R)-2-hydroxy-2-cyclopentyl-2-phenyl]ethoxy]-1-{2-[4-(2-{(R)-[2-hydroxy-2-(3-formamido-4-hydroxy)phenyl]ethylamino}propyl)phenoxy]ethyl}-1-azabicyclo[2,2,2]octylonium bromide]: the EC50 in [1] turned out to be 5 ± 1.1 nM; in data set [2], 20.6 ± 1.8 nM; in data set [3], 12.9 ± 1.8 nM. Moreover, the “0.5-4 h area increase … (%)” value in data set [4] (0.01 mg/kg iv) was found to be 0%; in [4] (0.10 mg/kg iv), 2.1%. Also, the results for the “liver extraction rate (ERh)” value in [5], in [6] and in [7] were 0.98, 0.95 and 0.97, respectively. Moreover, the “Residual rate after incubation of human lung homogenate (%)” value in data set [8] came out at 92%. Moreover, the “Residual rate after incubation of dog lung homogenate (%)” value in [9] turned out to be 89%.
As for `CC(NC[C@H](O)c1ccc(O)c(CO)c1)c1ccc(OCCC[N+]23CCC(CC2)[C@@H](OC[C@@](O)(c2ccccc2)C2CCCC2)C3)cc1` (some centres unmarked) [Compound 69], the EC50 in data set [1] worked out at 7.6 ± 1.8 nM; in [2], 27.7 ± 3.4 nM; in [3], 18.7 ± 2.8 nM. In addition, the results for the “0.5-4 h area increase … (%)” value in [4] (0.01 mg/kg iv) and in data set [4] (0.10 mg/kg iv) were −5.1% and −3.4%, respectively. In addition, the “liver extraction rate (ERh)” value in data set [5] is 0.95; in data set [6] it was 0.96; in data set [7], 0.94. Further, in [8], the “Residual rate after incubation of human lung homogenate (%)” value was determined as 94%. The “Residual rate after incubation of dog lung homogenate (%)” value in [9] was 90%.
Turning to `CC(Cc1ccc(OCCC[N+]23CCC(CC2)[C@@H](OC[C@@](O)(c2ccccc2)C2CCCC2)C3)cc1)NC[C@H](O)c1ccc(O)c2[nH]c(=O)ccc12.[Br-]` (some centres unmarked) [Compound 80], the EC50 in [1] was 3.3 ± 0.9 nM; in [2] it was 13.3 ± 1.2 nM; in data set [3] it was 9.9 ± 1.7 nM. Besides, the entries for the “0.5-4 h area increase … (%)” value in data set [4] (0.01 mg/kg iv) and in [4] (0.10 mg/kg iv) were 4% and −5.1%, respectively. Further, the “liver extraction rate (ERh)” value in data set [5] is on record as 0.92; in data set [6], 0.92; in data set [7], 0.91. Besides, the “Residual rate after incubation of human lung homogenate (%)” value in [8] turned out to be 92%. For the same compound, in data set [9], the “Residual rate after incubation of dog lung homogenate (%)” value was 92%.
Take `CC(NC[C@H](O)c1ccc(O)c(NC=O)c1)c1ccc(OCCC[N+]23CCC(CC2)[C@@H](OC[C@@](O)(c2ccccc2)C2CCCC2)C3)cc1.[Br-]` (some centres unmarked) [Compound 94]: the EC50 was found to be 19.8 ± 5.4 nM in [1], 43.5 ± 4.2 nM in data set [2] and 33.5 ± 5.7 nM in [3]. The “0.5-4 h area increase … (%)” value in [4] (0.01 mg/kg iv) is listed as −2.8%; in data set [4] (0.10 mg/kg iv) it was 4.6%. The “liver extraction rate (ERh)” value is 0.93 in data set [5], 0.94 in data set [6] and 0.94 in [7]. In data set [8], the “Residual rate after incubation of human lung homogenate (%)” value is given as 91%. Besides, the “Residual rate after incubation of dog lung homogenate (%)” value in data set [9] came out at 96%.
For `O=CNc1cc([C@@H](O)CNCCCOc2ccc(OCCC[N+]34CCC(CC3)[C@@H](OC[C@@](O)(c3ccccc3)C3CCCC3)C4)cc2)ccc1O` [Compound 113, (R)-(−)-3-[(R)-2-hydroxy-2-cyclopentyl-2-phenyl]ethoxy-1-{3-[4-(3-{(R)-[2-hydroxy-2-(3-formamido-4-hydroxy)phenyl]ethylamino}propoxy)phenoxy]propyl}-1-azabicyclo[2,2,2]octylonium bromide], the figures for the EC50 in data set [1], in data set [2] and in [3] were 7.2 ± 1.4 nM, 15.6 ± 2.6 nM and 17.6 ± 1.9 nM, respectively. The “0.5-4 h area increase … (%)” value was −3.4% in [4] (0.01 mg/kg iv) and 3.3% in [4] (0.10 mg/kg iv). The “liver extraction rate (ERh)” value was 0.97 in [5], 0.96 in data set [6] and 0.96 in data set [7]. Moreover, the “Residual rate after incubation of human lung homogenate (%)” value in [8] is given as 93%. The “Residual rate after incubation of dog lung homogenate (%)” value in [9] came to 93%.
In the case of `OCc1cc([C@@H](O)CNCCCOc2ccc(OCCC[N+]34CCC(CC3)[C@@H](OC[C@@](O)(c3ccccc3)C3CCCC3)C4)cc2)ccc1O.[Br-]` [Compound 122], the results for the EC50 in data set [1], in [2] and in data set [3] were 15.6 ± 3.6 nM, 56.7 ± 6.6 nM and 36.8 ± 4.1 nM, respectively. The figures for the “0.5-4 h area increase … (%)” value in data set [4] (0.01 mg/kg iv) and in [4] (0.10 mg/kg iv) were 6.6% and 0%, respectively. Besides, the “liver extraction rate (ERh)” value was 0.93 in [5], 0.97 in data set [6] and 0.98 in data set [7]. Besides, the “Residual rate after incubation of human lung homogenate (%)” value in data set [8] is given as 95%. Also, in data set [9], the “Residual rate after incubation of dog lung homogenate (%)” value was 92%.

In general, EC50 refers to the concentration at which the effect is half-maximal.
